In publication PMC2791543 (Cancer cell, 2009):
Blank lines part the entries; values can stand above or below the molecule they belong to.

Legend:
[1] = target: αvβ3 integrin (Homo sapiens, UniProt P05106+P06756); assay: ELISA affinity measurement on purified αvβ3 integrin; assay type: binding; settings: compared with iRGD
[2] = target: αvβ5 integrin (Homo sapiens, UniProt P06756+P18084); assay: ELISA affinity measurement on purified αvβ5 integrin; assay type: binding; settings: compared with iRGD
αvβ5 integrin, sequence (P06756 31-889 limits assumed): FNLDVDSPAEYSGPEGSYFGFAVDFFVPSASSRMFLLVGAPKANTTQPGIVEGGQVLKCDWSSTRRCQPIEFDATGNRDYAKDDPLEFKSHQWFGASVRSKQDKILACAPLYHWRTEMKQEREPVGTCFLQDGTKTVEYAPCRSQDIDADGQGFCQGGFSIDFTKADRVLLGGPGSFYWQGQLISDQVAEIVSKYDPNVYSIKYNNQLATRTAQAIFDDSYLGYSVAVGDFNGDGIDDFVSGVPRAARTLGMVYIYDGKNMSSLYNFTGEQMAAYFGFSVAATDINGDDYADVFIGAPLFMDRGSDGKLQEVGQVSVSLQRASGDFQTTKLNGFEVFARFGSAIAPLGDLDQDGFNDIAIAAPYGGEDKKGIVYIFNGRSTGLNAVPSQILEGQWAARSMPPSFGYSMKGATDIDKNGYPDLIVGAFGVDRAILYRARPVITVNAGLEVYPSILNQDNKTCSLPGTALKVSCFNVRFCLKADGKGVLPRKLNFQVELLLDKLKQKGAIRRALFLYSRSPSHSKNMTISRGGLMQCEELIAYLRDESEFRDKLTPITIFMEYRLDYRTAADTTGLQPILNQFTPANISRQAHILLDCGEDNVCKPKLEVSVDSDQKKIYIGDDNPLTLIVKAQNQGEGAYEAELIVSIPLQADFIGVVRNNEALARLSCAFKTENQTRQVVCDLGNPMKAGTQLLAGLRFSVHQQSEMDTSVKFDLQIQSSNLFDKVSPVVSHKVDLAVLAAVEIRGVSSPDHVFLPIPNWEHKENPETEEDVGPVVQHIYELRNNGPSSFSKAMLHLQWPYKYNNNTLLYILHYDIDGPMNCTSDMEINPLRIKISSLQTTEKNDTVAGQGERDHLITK
αvβ5 integrin, sequence (P06756 891-1048 limits assumed): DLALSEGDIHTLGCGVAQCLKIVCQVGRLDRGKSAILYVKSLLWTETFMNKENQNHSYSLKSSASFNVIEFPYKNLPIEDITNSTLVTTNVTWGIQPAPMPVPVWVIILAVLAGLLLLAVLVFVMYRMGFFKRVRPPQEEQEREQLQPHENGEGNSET
αvβ5 integrin, sequence (P18084 24-799): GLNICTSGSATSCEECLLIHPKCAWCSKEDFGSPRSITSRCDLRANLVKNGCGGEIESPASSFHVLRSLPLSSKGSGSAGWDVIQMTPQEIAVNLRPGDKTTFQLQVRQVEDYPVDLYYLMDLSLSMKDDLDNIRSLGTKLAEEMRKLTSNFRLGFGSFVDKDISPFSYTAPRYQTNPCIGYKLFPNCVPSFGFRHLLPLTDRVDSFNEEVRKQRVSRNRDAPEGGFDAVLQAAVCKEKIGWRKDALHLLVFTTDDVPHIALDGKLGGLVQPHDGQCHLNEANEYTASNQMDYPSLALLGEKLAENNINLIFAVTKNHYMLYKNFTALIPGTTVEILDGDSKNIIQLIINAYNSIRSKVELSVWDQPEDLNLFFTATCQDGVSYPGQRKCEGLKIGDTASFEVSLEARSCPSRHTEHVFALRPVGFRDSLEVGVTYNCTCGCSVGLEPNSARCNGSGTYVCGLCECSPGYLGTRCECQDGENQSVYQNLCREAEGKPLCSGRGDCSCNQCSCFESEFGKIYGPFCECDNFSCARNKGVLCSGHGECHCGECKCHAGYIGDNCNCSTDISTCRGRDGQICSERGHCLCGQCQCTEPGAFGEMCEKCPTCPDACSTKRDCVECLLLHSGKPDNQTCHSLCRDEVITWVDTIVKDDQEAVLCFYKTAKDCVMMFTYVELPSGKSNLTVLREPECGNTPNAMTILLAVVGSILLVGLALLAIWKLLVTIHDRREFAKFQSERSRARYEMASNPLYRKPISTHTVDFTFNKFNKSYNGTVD

[3] = test system: de novo pancreatic ductal adenocarcinoma; assay: In vivo peptide homing in PDAC mice; settings: FAM-labeled peptide, approximately 200 µg, 2 hrs circulation
[4] = test system: PPC1 cells; assay: Inhibition of CRGDK phage binding to PPC1 cells; assay type: cell-based, human
[5] = target: T1, Neuropilin-1 (Rattus norvegicus, UniProt Q9QWJ9); assay: competition ELISA
T1 chain: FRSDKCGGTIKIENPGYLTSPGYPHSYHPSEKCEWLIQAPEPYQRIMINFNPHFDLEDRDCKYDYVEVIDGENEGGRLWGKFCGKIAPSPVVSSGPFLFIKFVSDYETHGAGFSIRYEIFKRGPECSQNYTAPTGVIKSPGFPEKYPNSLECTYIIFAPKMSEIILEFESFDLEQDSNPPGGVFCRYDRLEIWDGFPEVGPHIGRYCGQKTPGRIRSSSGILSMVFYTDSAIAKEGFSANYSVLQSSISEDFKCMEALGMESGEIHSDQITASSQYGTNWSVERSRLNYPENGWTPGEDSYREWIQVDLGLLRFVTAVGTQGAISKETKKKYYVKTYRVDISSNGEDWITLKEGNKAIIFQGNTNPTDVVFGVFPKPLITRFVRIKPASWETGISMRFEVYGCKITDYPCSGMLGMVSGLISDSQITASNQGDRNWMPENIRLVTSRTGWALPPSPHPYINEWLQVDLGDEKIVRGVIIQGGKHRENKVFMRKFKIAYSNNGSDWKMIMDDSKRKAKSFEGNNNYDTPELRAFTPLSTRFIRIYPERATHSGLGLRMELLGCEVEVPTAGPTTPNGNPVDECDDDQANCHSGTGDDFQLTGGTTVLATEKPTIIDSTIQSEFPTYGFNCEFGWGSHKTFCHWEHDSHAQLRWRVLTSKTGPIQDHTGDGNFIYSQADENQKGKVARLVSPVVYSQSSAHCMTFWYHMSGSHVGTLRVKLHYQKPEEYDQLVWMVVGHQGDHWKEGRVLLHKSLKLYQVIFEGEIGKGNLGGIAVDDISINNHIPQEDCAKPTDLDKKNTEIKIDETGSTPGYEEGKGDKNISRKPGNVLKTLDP

αvβ3 integrin, sequence (P06756 31-889 limits assumed): as the sequence (P06756 31-889 limits assumed) above
αvβ3 integrin, sequence (P06756 891-1048 limits assumed): as the sequence (P06756 891-1048 limits assumed) above
αvβ3 integrin, sequence (P05106 27-788): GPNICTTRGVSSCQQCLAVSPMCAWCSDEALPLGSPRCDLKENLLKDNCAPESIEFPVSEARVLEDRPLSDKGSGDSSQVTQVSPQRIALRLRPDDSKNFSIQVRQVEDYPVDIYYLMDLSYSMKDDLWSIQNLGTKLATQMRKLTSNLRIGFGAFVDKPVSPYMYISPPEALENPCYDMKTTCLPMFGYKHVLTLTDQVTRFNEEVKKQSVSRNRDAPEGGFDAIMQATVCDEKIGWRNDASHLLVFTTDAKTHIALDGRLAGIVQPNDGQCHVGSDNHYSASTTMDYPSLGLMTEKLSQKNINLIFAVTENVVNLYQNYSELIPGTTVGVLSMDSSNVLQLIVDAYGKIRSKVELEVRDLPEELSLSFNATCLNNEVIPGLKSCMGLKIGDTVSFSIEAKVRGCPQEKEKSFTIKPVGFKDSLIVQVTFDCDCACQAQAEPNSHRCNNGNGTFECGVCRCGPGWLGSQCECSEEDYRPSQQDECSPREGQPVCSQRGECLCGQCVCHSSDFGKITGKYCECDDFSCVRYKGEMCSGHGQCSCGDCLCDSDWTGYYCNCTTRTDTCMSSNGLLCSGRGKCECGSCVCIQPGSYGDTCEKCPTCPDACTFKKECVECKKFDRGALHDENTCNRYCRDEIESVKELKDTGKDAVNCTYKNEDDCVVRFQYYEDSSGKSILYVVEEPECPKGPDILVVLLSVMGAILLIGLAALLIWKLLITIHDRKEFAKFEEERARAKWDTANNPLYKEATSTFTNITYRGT

Molecule: CRGEKGPDC [iRGE]
- tumor fluorescence after i.v. injection [3]: minimal tumor fluorescence

Molecule: RPARPAR
- inhibition of CRGDK phage binding to PPC1 cells by peptide [4]: inhibited

Next, values leading:

- affinity for αvβ3, by ability to block iRGD binding [1]: in the same range
- affinity for αvβ5, by ability to block iRGD binding [2]: in the same range
Molecule: CRGDC

- Kd [5]: 1400 nM
Molecule: CRGDK
